Experiments:
[1] = system: Glo-Response ARE-luc2P HEK293 cell line; assay: ARE luciferase reporter cell-based assay; settings: Homo sapiens, HEK293, 24 h, average of results obtained;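 also: luciferase signal tracks Nrf2 activation of the ARE once compounds disrupt KEAP1-Nrf2 binding, read with One-Glo reagent, DMSO serving as low control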
[2] = molecular target: Kelch domain of human KEAP1 (321-624 aa) (Homo sapiens (Human), UniProt Q14145); assay: KEAP1 KELCH ThermoFluor binding assay; settings: KEAP Kelch […], 1,8-ANS, pH 7.0, average of results obtained, read-out: Tf Kd;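 also: Ligand-induced melting temperature shift of E. coli-expressed KEAP1 Kelch protein, Kd estimated from concentration-response curves of ΔTm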
Chain of Kelch domain of human KEAP1 (321-624 aa) (Q14145 321-624): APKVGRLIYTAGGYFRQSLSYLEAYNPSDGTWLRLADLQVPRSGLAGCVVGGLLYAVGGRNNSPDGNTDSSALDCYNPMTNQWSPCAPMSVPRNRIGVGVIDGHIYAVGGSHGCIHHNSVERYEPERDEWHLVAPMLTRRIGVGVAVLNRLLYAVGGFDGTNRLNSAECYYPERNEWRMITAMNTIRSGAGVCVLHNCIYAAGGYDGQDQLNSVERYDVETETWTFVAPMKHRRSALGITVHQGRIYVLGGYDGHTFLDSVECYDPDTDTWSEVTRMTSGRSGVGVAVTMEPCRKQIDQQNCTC

Row | Kd [2] | SMILES | EC50 [1]
1 | < 1 nM | Cc1cnc2c(c1)S(=O)(=O)N(Cc1cc([C@H](c3ccc4c(nnn4C4CC4)c3C)C(C)(C)C(=O)O)ccc1C)CC1(CNC1)O2 (single isomer, unassigned) [Example 645, (*R)-3-(1-Cyclopropyl-4-methyl-1H-benzo[d][1,2,3]triazol-5-yl)-2,2-dimethyl-3-(4-methyl-3-((8′-methyl-1′,1′-dioxidospiro[azetidine-3,4′-pyrido[2,3-b][1,4,5]oxathiazepin]-2′(3′H)-yl)methyl)phenyl)propanoic Acid] | 1.5 nM
2 | < 1 nM | Cc1ccc([C@H](c2ccc3c(nnn3C3CC3)c2C)C(C)(C)C(=O)O)cc1CN1CC2(CCNCC2)Oc2ncccc2S1(=O)=O (single isomer, unassigned) [Example 647, (*R)-3-(1-Cyclopropyl-4-methyl-1H-benzo[d][1,2,3]triazol-5-yl)-3-(3-((1′,1′-dioxidospiro[piperidine-4,4′-pyrido[2,3-b][1,4,5]oxathiazepin]-2′(3′H)-yl)methyl)-4-methylphenyl)-2,2-dimethylpropanoic Acid] | 11.6 nM
3 | 1450 nM | Cc1cnc2c(c1)S(=O)(=O)N(Cc1cc([C@H](c3ccc4c(nnn4C4CC4)c3C)C(C)(C)C(=O)O)ccc1C)CC1(CCNCC1)O2 (single isomer, unassigned) [Example 649, (*R)-3-(1-Cyclopropyl-4-methyl-1H-benzo[d][1,2,3]triazol-5-yl)-2,2-dimethyl-3-(4-methyl-3-((8′-methyl-1′,1′-dioxidospiro[piperidine-4,4′-pyrido[2,3-b][1,4,5]oxathiazepin]-2′(3′)-yl)methyl)phenyl)propanoic Acid] | 4750 nM
4 | < 1 nM | Cc1cnc2c(c1)S(=O)(=O)N(Cc1cc([C@@H](c3ccc4c(nnn4C4CC4)c3C)C(C)(C)C(=O)O)ccc1C)CC1(CCNCC1)O2 (single isomer, unassigned) [Example 650, (*S)-3-(1-Cyclopropyl-4-methyl-1H-benzo[d][1,2,3]triazol-5-yl)-2,2-dimethyl-3-(4-methyl-3-((8′-methyl-1′,1′-dioxidospiro[piperidine-4,4′-pyrido[2,3-b][1,4,5]oxathiazepin]-2′(3′H)-yl)methyl)phenyl)propanoic Acid] | 4.36 nM
5 | < 1 nM | Cc1ncc([C@@H](c2ccn3c(C(F)(F)F)nnc3c2C)C(C)(C)C(=O)O)cc1CN1C[C@@H]2CCCCN2c2ncc(C#N)cc2S1(=O)=O (single isomer, unassigned) [Example 655, (*R)-3-(5-(((*S)-3-Cyano-5,5-dioxido-7,7a,8,9,10,11-hexahydro-6H-dipyrido[2,1-d:2′,3′-f][1,2,5]thiadiazepin-6-yl)methyl)-6-methylpyridin-3-yl)-2,2-dimethyl-3-(8-methyl-3-(trifluoromethyl)-[1,2,4]triazolo[4,3-a]pyridin-7-yl)propanoic Acid] | 138 nM
6 | < 1 nM | Cc1ncc([C@H](c2ccn3c(C(F)(F)F)nnc3c2C)C(C)(C)C(=O)O)cc1CN1C[C@@H]2CCCCN2c2ncc(C#N)cc2S1(=O)=O (single isomer, unassigned) [Example 657, (*S)-3-(5-(((*S)-3-Cyano-5,5-dioxido-7,7a,8,9,10,11-hexahydro-6H-dipyrido[2,1-d:2′,3′-f][1,2,5]thiadiazepin-6-yl)methyl)-6-methylpyridin-3-yl)-2,2-dimethyl-3-(8-methyl-3-(trifluoromethyl)-[1,2,4]triazolo[4,3-a]pyridin-7-yl)propanoic Acid] | 75 nM
7 | 1210 nM | Cc1ccc([C@H](c2ccn3c(C(F)(F)F)nnc3c2C)C(C)(C)C(=O)O)cc1CN1CC2(CC2)Oc2nc(OCCN3CCCC3)c(C)cc2S1(=O)=O (single isomer, unassigned) [Example 658, (*R)-2,2-dimethyl-3-(4-methyl-3-((8′-methyl-1′,1′-dioxido-7′-(2-(pyrrolidin-1-yl)ethoxy)spiro[cyclopropane-1,4′-pyrido[2,3-b][1,4,5]oxathiazepin]-2′(3′H)-yl)methyl)phenyl)-3-(8-methyl-3-(trifluoromethyl)-[1,2,4]triazolo[4,3-a]pyridin-7-yl)propanoic Acid] | 6050 nM
8 | 568 nM | Cc1ccc([C@H](c2ccn3c(C(F)(F)F)nnc3c2C)C(C)(C)C(=O)O)cc1CN1CC2(CC2)Oc2nc(OCCN3CCC(F)CC3)c(C)cc2S1(=O)=O (single isomer, unassigned) [Example 662, (*S)-3-(3-((7′-(2-(4-fluoropiperidin-1-yl)ethoxy)-8′-methyl-1′,1′-dioxidospiro[cyclopropane-1,4′-pyrido[2,3-b][1,4,5]oxathiazepin]-2′(3′H)-yl)methyl)-4-methylphenyl)-2,2-dimethyl-3-(8-methyl-3-(trifluoromethyl)-[1,2,4]triazolo[4,3-a]pyridine-7-yl)propanoic Acid] | 308 nM
9 | < 1 nM | Cc1ccc([C@@H](c2ccn3c(C4CC4)nnc3c2C)C(C)(C)C(=O)O)cc1CN1CC2(CC2)Oc2nc(OCCN3CCCC3)c(C)cc2S1(=O)=O (single isomer, unassigned) [Example 663, (*S)-3-(3-Cyclopropyl-8-methyl-[1,2,4]triazolo[4,3-a]pyridin-7-yl)-2,2-dimethyl-3-(4-methyl-3-((8′-methyl-1′,1′-dioxido-7′-(2-(pyrrolidin-1-yl)ethoxy)spiro[cyclopropane-1,4′-pyrido[2,3-b][1,4,5]oxathiazepin]-2′(3′H)-yl)methyl)phenyl)propanoic Acid] | 57.5 nM
10 | 1840 nM | Cc1ccc([C@H](c2ccn3c(C4CC4)nnc3c2C)C(C)(C)C(=O)O)cc1CN1CC2(CC2)Oc2nc(OCCN3CCCC3)c(C)cc2S1(=O)=O (single isomer, unassigned) [Example 664, (*R)-3-(3-Cyclopropyl-8-methyl-[1,2,4]triazolo[4,3-a]pyridin-7-yl)-2,2-dimethyl-3-(4-methyl-3-((8′-methyl-1′,1′-dioxido-7′-(2-(pyrrolidin-1-yl)ethoxy)spiro[cyclopropane-1,4′-pyrido[2,3-b][1,4,5]oxathiazepin]-2′(3′H)-yl)methyl)phenyl)propanoic Acid] | > 20000 nM
11 | 180 nM | CCn1nnc2c(C)c([C@@H](c3cc(CN4CC5(CC5)Oc5ncc(C)cc5S4(=O)=O)c(C)cn3)C(C)(C)C(=O)O)ccc21 (single isomer, unassigned) [Example 665, (*R)-3-(1-Ethyl-4-methyl-1H-benzo[d][1,2,3]triazol-5-yl)-2,2-dimethyl-3-(5-methyl-4-((8′-methyl-1′,1′-dioxidospiro[cyclopropane-1,4′-pyrido[2,3-b][1,4,5]oxathiazepin]-2′(3′H)-yl)methyl)pyridin-2-yl)propanoic Acid] | 497 nM

Row | SMILES | Kd [2] | EC50 [1]
12 | Cc1ccc([C@H](c2ccc3c(nnn3C3CC3)c2C)C(C)(C)C(=O)O)cc1CN1CC2(CC2)Oc2nc(N[C@@H](C)CN3CCCCC3)c(C)cc2S1(=O)=O (single isomer, unassigned) [Example 660, (*R)-3-(1-Cyclopropyl-4-methyl-1H-benzo[d][1,2,3]triazol-5-yl)-2,2-dimethyl-3-(4-methyl-3-((8′-methyl-1′,1′-dioxido-7′-(((S)-1-(piperidin-1-yl)propan-2-yl)amino)spiro[cyclopropane-1,4′-pyrido[2,3-b][1,4,5]oxathiazepin]-2′(3′H)-yl)methyl)phenyl)propanoic Acid] | 681 nM | 235 nM

From patent US10947252B2, “Inhibitors of KEAP1-Nrf2 protein-protein interaction” (Janssen Pharmaceutica NV, priority 2018, dated 2021)
